Measurements from patent publication US20250388602A1 (Genase Therapeutics B.V., priority 2022, published 2025).
pIC50: −log10 of the molar value. Where two headings read alike, the source gives them in different places.

Key:
in vitro [1] = details: for HLM % remaining: % remaining at 60 min, 1 μM; for half-life at 1 μM: both, human
Protocol: Human Liver Microsomal metabolic stability: The microsomal metabolic stability assay utilized pooled human liver microsomes (mixed gender, BD Gentest), with supplemented cofactors NADPH and UDPGA (Solarbio S&T Co., LTD). Two separate experiments were performed as follows: • a) With cofactors (NADPH & UDPGA): 25 μL of 10 mM NADPH and 25 μL of 20 mM UDPGA were added to 197.5 μL of reaction solution (phosphate buffer (final concentration in assay 100 mM), MgCl2 (final concentration in assay (5 mM)), alamethacin (final concentration in assay 0.025 mg/mL) and microsomes (final concentration in assay 0.5 mg/mL). • b) Without cofactors (NADPH & UDPGA): 50 μL of H2O was added to 197.5 μL of reaction solution.
The mixture was pre-warmed at 37° C. for 10 minutes. The reaction was started with the addition of 2.5 μL of 100 μM control compound or test compound solutions. Diclofenac was used as positive control in this study. The final concentration of control compound and test compounds was 1 μM. Aliquots of 25 μL were taken from the reaction solution at 0.5, 5, 15, 30 and 60 minutes. The reaction was stopped by the addition of 5 volumes of cold acetonitrile containing internal standards. Samples were centrifuged at 3,220 g for 40 minutes. An aliquot of 100 μL of the supernatant was mixed with 100 μL of ultra-pure H2O and then used for LC-MS/MS analysis. Peak areas were determined from extracted ion chromatograms. Percent parent remaining was calculated from the area ratio of test compound. The slope value was determined by linear regression of the natural logarithm of percent parent remaining versus incubation time curve.
(§1) Peak areas were determined from extracted ion chromatograms to determine the in vitro half-life (t½) of parent compound by regression analysis of the percent parent disappearance vs. time curve. The in vitro half-life (in vitro t½) was determined from the slope value (in vitro t½=−0.693/k). All calculations were carried out using Microsoft Excel.

in vitro [2] = details: for hHEPs % remaining: % remaining at 120 min, 1 μM; for half-life at 1 μM: human, hepatocytes
Protocol: Human Hepatocyte metabolic stability: Human hepatocytes (X008000, BioIVT) were freshly thawed prior to the incubations with test compound. Hepatocytes were transferred to 50 mL conical tubes and centrifuged 10 min at 100 g. Thawing medium was removed and replaced by preheated (37° C.) incubation medium (William's E Medium supplemented with GlutaMAX), to yield a hepatocyte density ˜1.5×10^6 cells/mL. Cell viability was determined using AO/PI staining and hepatocytes were diluted using incubation medium to a working density of 0.5×10^6 viable cells/mL. 198 μL of hepatocytes were added into each well of a 96-well plate and placed in the incubator to allow the hepatocytes to warm for 10 minutes. 2 μL test compound or positive control was placed into respective wells of the 96-well plate (final concentration test compound 1 μM) to start the reaction. The plate was returned to the incubator and 25 μL aliquots of the well contents were removed at time points of 0, 15, 30, 60, 90 and 120 minutes. The aliquots were mixed with 6 volumes (150 μL) of acetonitrile containing internal standards (100 nM alprazolam, 200 nM caffeine, and 100 nM tolbutamide) to terminate the reaction. The plate was centrifuged for 20 minutes at 3,200 g. Aliquots of 150 μL of the supernatants were used for LC/MS/MS analysis. All incubations were performed in duplicate.
as §1

recombinant human DHODH = recombinant human DHODH (Homo sapiens (Human), UniProt Q02127); test: DHODH enzyme assay (Assay A), DCIP absorbance; format: biochemical
Protocol: Inhibition of human dihydroorotate dehydrogenase (DHODH) by example compounds as described herein was determined using one of two assays as described below.
DHODH enzyme assays were performed with 6 nM recombinant human DHODH (purified essentially as described by Walse et al., Biochemistry, 47, 8929-8936 (2008)). The reaction mixture consisted of 1 mM DL-dihydroorotic acid (#D7003, Sigma-Aldrich), 100 μM 3,4-dimethoxy-5-methyl-p-benzoquinone (#D9150, Sigma-Aldrich), and 100 μM 2,6-dichlorophenolindophenol sodium salt (DCIP) (#D1878, Sigma-Aldrich) in enzyme buffer (50 mM Tris-HCl pH 8.0, 0.1% Triton X-100, 150 mM KCl). A stock solution of 20 mM DCIP was prepared in enzyme buffer and filtered through Whatman paper just before use. Reactions were performed in a total volume of 100 μL, consisting of 1 μL of compound, 49 μL of enzyme and 50 μL of reaction mixture. Loss in absorbance by chromogen DCIP was measured at 595 nm following a 70 minute incubation at 32° C.

MOLM-13 cells = test: MOLM-13 cell viability (Assay B), Cell Titer-Glo; format: cell-based; details: Homo sapiens, read-out: IC50 MOLM13 inhibition activity
Protocol: MOLM-13 cells (an acute myeloid leukemia cell line) were plated in RPMI supplied with 10% FBS and 1% Pen/Strep in 384-well plates at 1,000 cells per well on day 0. On day 1, treatment of the cells with compound (concentration range 10E-5 and 6E-12 M) was initiated in the presence or absence of 100 μM uridine. After 72 hours incubation of the cells with or without test compound, the number of viable cells per well was assessed by Cell Titer-Glo Luminescent Cell Viability Assay (Promega, Madison, WI, USA). […] Each condition was tested in duplicate and the potency of test compounds was determined from two independent experiments.

[3] = bins ≥10 nM-<100 nM and <10 nM, read-out: IC50 DHODH inhibition activity
[4] = MOLM-13, 72 hours, bins ≥10 nM-<100 nM and <10 nM

Sequence of recombinant human DHODH (Q02127 whole entry): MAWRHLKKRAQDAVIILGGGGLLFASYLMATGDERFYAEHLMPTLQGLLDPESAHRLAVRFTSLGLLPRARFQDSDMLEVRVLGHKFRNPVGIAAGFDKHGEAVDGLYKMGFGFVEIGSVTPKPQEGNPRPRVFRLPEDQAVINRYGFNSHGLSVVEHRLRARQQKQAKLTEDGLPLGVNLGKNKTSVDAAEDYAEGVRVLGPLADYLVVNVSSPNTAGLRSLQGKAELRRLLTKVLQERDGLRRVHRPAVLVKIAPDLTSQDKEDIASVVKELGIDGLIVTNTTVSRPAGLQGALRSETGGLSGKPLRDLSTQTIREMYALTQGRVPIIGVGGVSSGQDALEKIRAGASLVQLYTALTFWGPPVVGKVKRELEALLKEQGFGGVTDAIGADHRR

| SMILES | pIC50 (recombinant human DHODH; [3]) | pIC50 (MOLM-13 cells; [4]) | other results |
| --- | --- | --- | --- |
| O=C(N[C@H]1COCc2c1cnn2-c1c(F)cccc1Cl)c1ncn2c1CCCC2 (single isomer, unassigned) [Ex-10] |  |  | HLM % remaining (in vitro [1]): 100%; half-life at 1 μM (in vitro [1]; pooled liver microsomes): > 6.08 h; hHEPs % remaining (in vitro [2]): 100%; half-life at 1 μM (in vitro [2]): > 10 h |
| O=C(N[C@@H]1COCc2c1cnn2-c1cccc(C(F)(F)F)c1Cl)c1ncn2c1CCCC2 [Ex-50, (S)—N-(1-(2-chloro-3-(trifluoromethyl)phenyl)-1,4,5,7-tetrahydropyrano[3,4-c]pyrazol-4-yl)-5,6,7,8-tetrahydroimidazo[1,5-a]pyridine-1-carboxamide] | 7.00 to 8.00 | > 8.00 |  |
| Cc1cccc(-n2ncc3c2COC[C@H]3NC(=O)c2ncc3n2CCCC3)c1Cl [Ex-16, (S)—N-(1-(2-chloro-3-methylphenyl)-1,4,5,7-tetrahydropyrano[3,4-c]pyrazol-4-yl)-5,6,7,8-tetrahydroimidazo[1,5-a]pyridine-3-carboxamide] | > 8.00 | > 8.00 |  |
| CCN(CC)C(=O)c1cccc(-n2ncc3c2COC[C@H]3NC(=O)c2ncn3c2CCCC3)c1Cl [Ex-74, (S)—N-(1-(2-chloro-3-(diethylcarbamoyl)phenyl)-1,4,5,7-tetrahydropyrano[3,4-c]pyrazol-4-yl)-5,6,7,8-tetrahydroimidazo[1,5-a]pyridine-1-carboxamide] | 7.00 to 8.00 | 7.00 to 8.00 |  |
| CCc1c(C(=O)N[C@@H]2COCc3c2cnn3-c2cccc(C)c2Cl)n[nH]c1C [Ex-19, (S)—N-(1-(2-chloro-3-methylphenyl)-1,4,5,7-tetrahydropyrano[3,4-c]pyrazol-4-yl)-4-ethyl-5-methyl-1H-pyrazole-3-carboxamide] | 7.00 to 8.00 | 7.00 to 8.00 |  |
| Cc1cccc(Cl)c1-n1ncc2c1COC[C@H]2NC(=O)c1n[nH]c2c1CCCC2 [Ex-37, (S)—N-(1-(2-chloro-6-methylphenyl)-1,4,5,7-tetrahydropyrano[3,4-c]pyrazol-4-yl)-4,5,6,7-tetrahydro-1H-indazole-3-carboxamide] | 7.00 to 8.00 | 7.00 to 8.00 |  |
| O=C(N[C@@H]1COCc2c1cnn2-c1cccc(C(=O)N2CCOCC2)c1Cl)c1ncn2c1CCCC2 [Ex-73, (S)—N-(1-(2-chloro-3-(morpholine-4-carbonyl)phenyl)-1,4,5,7-tetrahydropyrano[3,4-c]pyrazol-4-yl)-5,6,7,8-tetrahydroimidazo[1,5-a]pyridine-1-carboxamide] |  | 7.00 to 8.00 | pIC50 (recombinant human DHODH): 7.00 to 8.00 |
| COc1ccc(F)c(-n2ncc3c2COC[C@H]3NC(=O)c2noc3c2CCCC3)c1Cl [Ex-31, (S)—N-(1-(2-chloro-6-fluoro-3-methoxyphenyl)-1,4,5,7-tetrahydropyrano[3,4-c]pyrazol-4-yl)-4,5,6,7-tetrahydrobenzo[d]isoxazole-3-carboxamide] |  |  | pIC50 (recombinant human DHODH; read-out: IC50 DHODH inhibition activity): > 8.00; pIC50 (MOLM-13 cells; MOLM-13, 72 h): > 8.00 |
| Cc1cnc(C(=O)N[C@@H]2COCc3c2cnn3-c2ccccc2F)cc1C [Ex-45, (S)—N-(1-(2-fluorophenyl)-1,4,5,7-tetrahydropyrano[3,4-c]pyrazol-4-yl)-4,5-dimethylpicolinamide] |  |  | HLM % remaining (in vitro [1]): 88%; half-life at 1 μM (in vitro [1]; pooled liver microsomes): 4.57 h; hHEPs % remaining (in vitro [2]): 72%; half-life at 1 μM (in vitro [2]): 4.77 h |
| CCc1c(C(=O)N[C@@H]2COCc3c2cnn3-c2c(F)ccc(OC)c2Cl)n[nH]c1C [Ex-32, (S)—N-(1-(2-chloro-6-fluoro-3-methoxyphenyl)-1,4,5,7-tetrahydropyrano[3,4-c]pyrazol-4-yl)-4-ethyl-5-methyl-1H-pyrazole-3-carboxamide] | 7.00 to 8.00 |  | pIC50 (MOLM-13 cells; MOLM-13, 72 h): > 8.00 |
| CCc1c(C(=O)N[C@@H]2COCc3c2cnn3-c2ccccc2F)n[nH]c1C [Ex-44, (S)-4-ethyl-N-(1-(2-fluorophenyl)-1,4,5,7-tetrahydropyrano[3,4-c]pyrazol-4-yl)-5-methyl-1H-pyrazole-3-carboxamide] |  |  | HLM % remaining (in vitro [1]): 92%; half-life at 1 μM (in vitro [1]; pooled human liver microsomes): > 6.08 h; half-life at 1 μM (in vitro [2]): 9.35 h |
| Cc1cccc(Cl)c1-n1ncc2c1COC[C@H]2NC(=O)c1noc2c1CCCC2 [Ex-38, (S)—N-(1-(2-chloro-6-methylphenyl)-1,4,5,7-tetrahydropyrano[3,4-c]pyrazol-4-yl)-4,5,6,7-tetrahydrobenzo[d]isoxazole-3-carboxamide] | > 8.00 | > 8.00 |  |
| Cc1cccc(-n2ncc3c2COC[C@H]3NC(=O)c2n[nH]c3c2CCCC3)c1Cl [Ex-17, (S)—N-(1-(2-chloro-3-methylphenyl)-1,4,5,7-tetrahydropyrano[3,4-c]pyrazol-4-yl)-4,5,6,7-tetrahydro-1H-indazole-3-carboxamide] | 7.00 to 8.00 | 7.00 to 8.00 |  |
| O=C(N[C@@H]1COCc2c1cnn2-c1ccccc1F)c1n[nH]c2c1CCCC2 [Ex-42, (S)—N-(1-(2-fluorophenyl)-1,4,5,7-tetrahydropyrano[3,4-c]pyrazol-4-yl)-4,5,6,7-tetrahydro-1H-indazole-3-carboxamide] |  |  | HLM % remaining (in vitro [1]): 85%; half-life at 1 μM (in vitro [1]; pooled liver microsomes): 3.93 h; hHEPs % remaining (in vitro [2]): 76%; half-life at 1 μM (in vitro [2]): 5.43 h |
| COc1ccc(F)c(-n2ncc3c2COC[C@H]3NC(=O)c2n[nH]c3c2CCCC3)c1Cl [Ex-30, (S)—N-(1-(2-chloro-6-fluoro-3-methoxyphenyl)-1,4,5,7-tetrahydropyrano[3,4-c]pyrazol-4-yl)-4,5,6,7-tetrahydro-1H-indazole-3-carboxamide] | 7.00 to 8.00 | > 8.00 |  |
| CCc1c(C(=O)N[C@@H]2COCc3c2cnn3-c2c(F)ccc(OC)c2Cl)ncn1C [Ex-28, (S)—N-(1-(2-chloro-6-fluoro-3-methoxyphenyl)-1,4,5,7-tetrahydropyrano[3,4-c]pyrazol-4-yl)-5-ethyl-1-methyl-1H-imidazole-4-carboxamide] | > 8.00 | > 8.00 |  |
| O=C(N[C@@H]1COCc2c1cnn2-c1cccc(C(=O)N2CCCC2)c1Cl)c1ncn2c1CCCC2 [Ex-71, (S)—N-(1-(2-chloro-3-(pyrrolidine-1-carbonyl)phenyl)-1,4,5,7-tetrahydropyrano[3,4-c]pyrazol-4-yl)-5,6,7,8-tetrahydroimidazo[1,5-a]pyridine-1-carboxamide] | 7.00 to 8.00 | 7.00 to 8.00 |  |
| O=C(N[C@@H]1COCc2c1cnn2-c1cccc(O)c1Cl)c1ncn2c1CCCC2 [Ex-62, (S)—N-(1-(2-chloro-3-hydroxyphenyl)-1,4,5,7-tetrahydropyrano[3,4-c]pyrazol-4-yl)-5,6,7,8-tetrahydroimidazo[1,5-a]pyridine-1-carboxamide] |  |  | pIC50 (recombinant human DHODH): 7.00 to 8.00; pIC50 (MOLM-13 cells; MOLM-13, 72 h): 7.00 to 8.00 |
